Laboratory results: PubChem BioAssay AID179 (DTP/NCI, 2004)
pEC50, pIC50: −log10 of the molar value. Calls of active or inactive are those of the source.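 Rule for the calls: active = compounds giving half or more protection of infected cells from virus-caused growth loss, again on retest; inactive = the rest.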

Test system: CEM cells HIV-1 protection, formazan growth assay
Assay: NCI AIDS Antiviral Assay
Settings: for pIC50: measured here: growth of uninfected CEM cells
How it was run: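 Soluble formazan readout of cell growth; CEM cells ± HIV-1; 5 drug concs. ≥50% protection → retest; ≥50% again = moderately active; reproducible 100% = confirmed active.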

| SMILES | outcome | pEC50 | pIC50 |
| --- | --- | --- | --- |
| Cc1[nH]nc2c1C(=O)C=C(N(CCO)c1ccccc1)C2=O | inactive | – | – |
| O=C1c2ccccc2C(=O)C1C(c1ccc([N+](=O)[O-])cc1)C1C(=O)c2ccccc2C1=O | – | < 5.35 | < 5.35 |
| O=C(O)C(=Cc1ccc(Br)cc1)C(=O)O | – | < 3.04 | < 3.04 |
| Nc1nc2c3nc(Nc4ccccc4)sc3nc(=O)n2c2sc(Nc3ccccc3)nc12 | – | < 5.23 | < 5.23 |
| Cc1cn(C2CC(N=[N+]=[N-])C(COC(=O)C3CNC(=O)N3)O2)c(=O)[nH]c1=O (stereo not given) | active | – | 4.03 |
| C=CCn1c(N)c(N=O)c(=O)n(CC)c1=O | – | < 3.70 | < 3.70 |
| N#CNC1=NC(Cc2ccccc2)C(=O)N1CCc1c[nH]c2ccccc12 (stereo not given) | – | < 3.70 | 4.50 |
| CC(=O)C1C(=O)C(=O)N(c2ccc(Cl)c(Cl)c2)C1=O (stereo not given) | – | < 3.70 | 3.89 |
| O=C1[C@@H]2C3SC(c4cc5ccccc5cc43)[C@@H]2C(=O)N1c1ccccc1 | – | < 4.14 | < 4.14 |
| CCOc1cc2c(cc1O)/C(=N\O)C[C@@H]1[C@@H]2CC[C@]2(C)[C@@H](O)CC[C@@H]12 | – | < 3.70 | 7.20 |
| CCOc1ccccc1NC(=O)C1=C(C)NC(C)=C(C(=O)Nc2ccccc2OCC)C1c1ccc(NC(C)=O)cc1 | – | < 4.90 | < 4.90 |
| CCCCCC=C(c1cc(Cl)c(OC)c(C(=O)NC)c1)c1cc(Cl)c(OC)c(C(=O)NC)c1 | – | < 4.42 | 4.69 |
| COC(=O)Sc1c2sc(C(=O)OC)c(C)c2n2ccccc12 | inactive | – | – |
| CCOC(=O)C(CC(C)C)NC(=O)C(Cc1ccc(N(CCCl)CCCl)cc1)NC(C)=O (stereo not given) | – | < 4.97 | 6.88 |
| c1ccc2c(CN3CCC(C4CCN(Cc5cccc6ccccc56)CC4)CC3)cccc2c1 | – | < 3.70 | 6.03 |
| CCC1=C(OC)c2ncccc2C(=O)C1=O | inactive | – | – |
| Cn1/c(=N\S(=O)(=O)c2ccccc2)n(S(=O)(=O)c2ccccc2)c2ccccc21 | – | < 3.70 | < 3.70 |
| CC1=Nn2c(nnc2-c2ccccc2Cl)NC(C)(C)C1 | – | < 3.35 | 3.55 |
| C/C=C(\C)C(=O)OC1CC(OC(C)=O)C2(C(=O)OC)COC3C2C1(C)C1C2(C(=O)OC)OCC1(C3O)C1(O)C3CC(C4(O)C=COC4O3)C1(C)O2 (stereo not given) | – | < 3.70 | 3.76 |
| CC(C)Oc1c(O)c2c3c(oc(=O)n3C=CC2c2ccccc2F)c1OC(C)C (stereo not given) | – | < 3.70 | 4.53 |
| Cc1ccc(-c2cc(-c3ccco3)c(C#N)c(=O)n2C2OC(CO)C(O)C(O)C2O)cc1 (stereo not given) | – | 4.59 | 4.09 |

| SMILES | outcome | pEC50 | pIC50 |
| --- | --- | --- | --- |
| Nc1nc(Cl)c(Cl)c(NCC2(O)CCC2)n1 | – | < 3.70 | 4.68 |
| COc1c(C)c(-c2c(C)c(OC)c3c(c2OC)OCO3)c(OC)c2c1OCO2 | – | < 3.70 | 3.77 |
| CCN(CC)CCNc1ccc(CO)c2oc3cc(Cl)ccc3c(=O)c12 | – | < 4.60 | 5.34 |
| O=c1c2ccccc2nc(-c2ccccc2)n1-c1nccs1 | – | < 3.70 | 4.65 |
| CCC(=O)Nc1nc2c(ncn2C2OC(COC(=O)CC)C(OC(=O)CC)C2OC(=O)CC)c(=O)[nH]1 (stereo not given) | – | < 3.45 | 3.51 |
| CCn1cc(C(=O)O)c(=O)c2cc3c(cc21)S(=O)(=O)CC3 | – | < 3.70 | < 3.70 |
| CCCCCCCCCC(=O)Oc1c2ccoc2cc2oc(=O)ccc12 | – | < 4.20 | < 4.20 |
| O=c1[nH]nc2c3n[nH]c(=O)n3c3ccccc3n12 | – | < 4.83 | < 4.83 |
| CC(C)(C)N=C(NO)c1ccccc1 | inactive | – | – |
| COc1ccc(C(OC(=O)[C@H](O[Si](C)(C)C(C)(C)C)[C@@H](NC(=O)c2ccccc2)c2ccccc2)c2ccc(OC)cc2)cc1 | – | < 3.70 | 4.02 |
| N#CCCN(C(=O)Nc1ccc(NC(=O)N(CCC#N)c2ccccc2)cc1)c1ccccc1 | – | < 3.70 | < 3.70 |
| CCC(=O)N1C(=O)C(CC)(CC)C(=O)N1C(=O)CC | – | < 3.70 | < 3.70 |
| S=c1c2ccccc2c(=S)n(-c2ccccc2)n1-c1ccccc1 | – | < 3.70 | < 3.70 |
| CC(C)CNC(=O)c1c(NC(=O)c2ccccc2)sc2[nH]c(=O)n(-c3ccccc3)c(=O)c12 | – | < 4.30 | < 4.30 |
| CCC1(CC)SCC(=O)NC1=O | – | < 3.70 | < 3.70 |
| O=C1c2cccc(O)c2C(=O)c2c(O)cccc21 | – | < 4.52 | < 4.52 |
| Cc1cc(S(=O)(=O)Nc2nc(N)n(-c3ccccn3)n2)c(S)cc1Cl | – | 3.94 | < 3.70 |
| C/C(=N\NC(=O)c1ccccc1O)c1c(O)cc(C)oc1=O | – | < 4.07 | 4.15 |
| O=[N+]([O-])c1ccccc1S(=O)(=O)Cc1ccccc1 | – | < 3.61 | < 3.61 |
| COC(=O)C1C=NNC1C(=O)OC (stereo not given) | inactive | – | – |
| c1ccc2[nH]c(-c3nc4ccccc4o3)nc2c1 | – | < 4.80 | < 4.80 |

| SMILES | outcome | pEC50 | pIC50 |
| --- | --- | --- | --- |
| O=C(O)c1cc(Cc2cc(C(=O)O)c(O)c3ccccc23)c2ccccc2c1O | – | < 6.09 | < 6.09 |
| COc1ccc(C)cc1-c1cc(Sc2ccccc2)c(-c2cc(C)ccc2OC)o1 | – | < 4.27 | < 4.27 |
| CC1=Cc2cc3[n-]c(cc4nc(cc5[n-]c(cc1n2)cc5C)C(C)=C4CCC(=O)O)c(CCC(=O)O)c3C.[Pd+2] | – | < 4.93 | 5.99 |
| C=C(C)C(OC(C)=O)C(OCC)c1c(OC)ccc2ccc(=O)oc12 (stereo not given) | – | < 4.30 | < 4.30 |
| C=CCCCN(C(=O)c1ccccc1)c1ccc(C(=O)OC)o1 | – | < 3.70 | 4.30 |
| Cc1ccc2c(c1S)C(=O)c1ccccc1C2=O | – | < 3.93 | 4.53 |
| CN(C)CC1CCCC/C1=N\OC(=O)c1ccccc1 (stereo not given) | inactive | – | – |
| O=C(O)c1nn(-c2ccccc2-c2n[nH]c(=O)[nH]c2=O)c(=O)[nH]c1=O | – | < 3.70 | < 3.70 |
| O=C1/C(=C/c2ccc(F)cc2)CCc2ccccc21 | – | < 4.97 | < 4.97 |
| NC(=O)C(=CNC(=S)c1cccnc1)C(N)=O | – | < 3.70 | 4.13 |
| Cc1ccc(-n2c(CSc3ccc(Cl)cc3)nnc2SCc2nc3ccccc3[nH]2)cc1 | – | < 3.70 | 3.92 |
| C=C1CC(c2ccc(S(=O)(=O)N3CCOCC3)cc2)OC1=O (stereo not given) | – | < 3.70 | 5.55 |
| CCOC(=O)c1oc2cc(O)ccc2c(=O)c1-c1ccc(OC)c(OC)c1 | – | < 3.70 | 4.29 |
| Clc1cc(N/N=C(\c2ccccc2)c2ccccn2)ncn1 | – | < 6.70 | 7.20 |
| COc1cc(C)c(O)c(C[P+](c2ccccc2)(c2ccccc2)c2ccccc2)c1 | – | < 3.70 | 4.93 |
| CCC1C(c2ccccc2O)c2cc3c(cc2OC1N1CCOCC1)OCO3 (stereo not given) | – | < 3.70 | 4.65 |
| CC(=O)NC1=CC(=O)C=C(Cl)C1=O | – | < 3.70 | 4.49 |
| Cc1cc(=O)[nH]c(N/N=C/c2ccc(Cl)c(Cl)c2)n1 | – | < 4.61 | 4.91 |
| CC1=NNC(=O)C1C1CC(c2c[nH]c3ccccc23)=NNC1=S (stereo not given) | – | < 4.00 | < 4.00 |
| Cc1ccc(/C=N/n2c(=O)[nH]c3ccccc3c2=O)cc1 | – | < 3.70 | < 3.70 |
| C=C1C(=O)OC2CC(C)C3(O)C=C(C(C)=O)C4(OC3CC12)C(=O)OC1CC(C)C2(/C=C\C(C)=O)OC2CC14 (stereo not given) | – | < 3.32 | 4.09 |
